Measurements reported in publication PMC10636063, “Progesterone activation of β1-containing BK channels involves two binding sites” (Nature Communications, 2023).

Tests used:
[1] = molecular target: T1, smooth muscle myocyte BK channels (C57BL/6) (Mus musculus, UniProt Q8CAE3); test: Inside-out patch-clamp of MCA smooth muscle myocytes, wt mice; assay type: cell-based
T1 construct: endogenous in cells; host or cells: freshly isolated mouse middle cerebral artery smooth muscle cells, inside-out patches
Procedure: Ionic currents were recorded from excised, inside-out (I/O) patches. […] In all experiments, free [Ca^2+] in solution was adjusted to the desired value by adding the appropriate amount of Ca^2+ from a 1 mM CaCl2 stock. An agar bridge with Cl^- as main anion was used as ground electrode. Solutions were applied onto the cytosolic side of I/O patches using an automated, pressurized system (Octaflow; […] Ionic currents at single channel resolution were recorded using an EPC8 amplifier (HEKA) at 1 kHz. Data were digitized at 5 kHz using a Digidata […] A/D converter and pCLAMP 8.0 (Molecular Devices); n = 5/group. […] Drug-induced NPo changes were determined by comparing baseline NPo (i.e., NPo with the patch/cell perfused with bath solution) to the NPo from the same patch/cell exposed to the agent under study (DMSO/PROG/oxime) dissolved in bath solution.

MCA branches (C57BL/6J) = test: EtOH-induced cerebrovascular constriction in vivo (cranial window); parameters: species or system mouse; settings: 10 µM PROG + 50 mM EtOH infused
Procedure: Eight-12 week-old male and female C57BL/6J mice were anesthetized with a mixture of xylazine/ketamine (12/100 mg per kg) and kept anesthetized for the duration of the experiment with subsequent ketamine doses (50 mg/kg of weight) as needed. A catheter was inserted into the carotid artery so that the infusion went straight to the brain rather than towards the thoracic cavity. An area of the skull was cleared of tissue and thinned to expose the branching arteries originating from the MCA on the side the catheter was inserted, above the zygomatic arch, between the ear and eye of the skull[19],[34]. The exposed arteries branching out from the MCA were monitored using a Leica MC170 HD microscope with a mounted camera (Leica M125 C) connected to a computer monitor. Drugs were diluted to their final concentration in sodium saline (0.9% NaCl) and administered via catheter at 0.1 ml/25 g of weight. Cranial window images before and after drug administration were acquired every 60 seconds for subsequent analysis.

[2] = system: de-endothelialized, pressurized MCA segments (C57BL/6 male); test: EtOH-induced constriction of pressurized MCA in vitro; parameters: species or system mouse; settings: 10 µM PROG, 10-75 mM EtOH
Description: Eight-12 week-old C57BL/6J and KCNMB1^−/− on C57BL/6 background mice of both sexes were deeply anesthetized with isoflurane via inhalation in a tightly sealed jar. Resistance size MCAs (~100 μm in external diameter) were dissected out of the mouse brains after animal euthanasia with sharp scissors. For de-endothelialized records, the endothelium was removed by passing an air bubble into the vessel lumen for 90 s[30]. This method has been consistently used by our group and validated using endothelium-dependent versus endothelium-independent vasodilators[16],[26]. Arteries were cannulated as previously described by our group[26],[40]. MCAs were cut into 5 to 10 mm-long segments under a microscope (Nikon SMZ645). The segment was cannulated at each end, and the artery exterior was continuously perfused with physiologic sodium saline (PSS) of the following composition (mM): 119 NaCl, 4.7 KCl, 1.2 KH2PO4, 1.6 CaCl2, 1.2 MgSO4, 0.023 EDTA, 11 glucose, 24 NaHCO3, pH=7.4. PSS was continuously bubbled with an O2/CO2/N2 (21/5/74%) gas mixture and maintained at 35–37 °C. The artery external wall diameter was measured using the automatic edge-detection function of lonWizard software (lonOptix) via Sanyo VCB-3512T camera (Sanyo Electric Co.). Arteries were first incubated at an intravascular pressure of 10 mm Hg for 10 min. Then intravascular pressure was increased to 60 mmHg and held steady throughout the experiment to induce myogenic tone development and maintenance[19],[30],[51]. Each artery segment was exposed to PROG, PROG-oxime (in presence and absence of 1 µM paxilline) only once to avoid development of desensitization during repeated applications of PROG-containing solution. To determine arterial viability, arterial contractility was probed with a high KCl solution at the end of each experiment. The high KCl solution was composed of the following composition (mM): 63.7 NaCl, 60 KCl, 1.2 KH2PO4, 1.2 MgSO4, 0.023 EDTA, 11 glucose, 24 NaHCO3, 1.6 CaCl2, pH=7.4. Like PSS, the high-KCl solution was continuously bubbled with O2/CO2/N2 (21/5/74%) gas mixture and maintained at 35–37 °C.

T1 sequence (Q8CAE3 whole entry): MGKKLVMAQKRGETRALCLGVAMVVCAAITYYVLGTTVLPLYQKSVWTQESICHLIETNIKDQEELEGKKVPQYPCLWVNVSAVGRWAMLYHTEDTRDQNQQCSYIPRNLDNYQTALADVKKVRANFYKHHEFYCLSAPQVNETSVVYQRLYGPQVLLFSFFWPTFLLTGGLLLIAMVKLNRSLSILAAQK
T1 sequence (Q08460 whole entry partner): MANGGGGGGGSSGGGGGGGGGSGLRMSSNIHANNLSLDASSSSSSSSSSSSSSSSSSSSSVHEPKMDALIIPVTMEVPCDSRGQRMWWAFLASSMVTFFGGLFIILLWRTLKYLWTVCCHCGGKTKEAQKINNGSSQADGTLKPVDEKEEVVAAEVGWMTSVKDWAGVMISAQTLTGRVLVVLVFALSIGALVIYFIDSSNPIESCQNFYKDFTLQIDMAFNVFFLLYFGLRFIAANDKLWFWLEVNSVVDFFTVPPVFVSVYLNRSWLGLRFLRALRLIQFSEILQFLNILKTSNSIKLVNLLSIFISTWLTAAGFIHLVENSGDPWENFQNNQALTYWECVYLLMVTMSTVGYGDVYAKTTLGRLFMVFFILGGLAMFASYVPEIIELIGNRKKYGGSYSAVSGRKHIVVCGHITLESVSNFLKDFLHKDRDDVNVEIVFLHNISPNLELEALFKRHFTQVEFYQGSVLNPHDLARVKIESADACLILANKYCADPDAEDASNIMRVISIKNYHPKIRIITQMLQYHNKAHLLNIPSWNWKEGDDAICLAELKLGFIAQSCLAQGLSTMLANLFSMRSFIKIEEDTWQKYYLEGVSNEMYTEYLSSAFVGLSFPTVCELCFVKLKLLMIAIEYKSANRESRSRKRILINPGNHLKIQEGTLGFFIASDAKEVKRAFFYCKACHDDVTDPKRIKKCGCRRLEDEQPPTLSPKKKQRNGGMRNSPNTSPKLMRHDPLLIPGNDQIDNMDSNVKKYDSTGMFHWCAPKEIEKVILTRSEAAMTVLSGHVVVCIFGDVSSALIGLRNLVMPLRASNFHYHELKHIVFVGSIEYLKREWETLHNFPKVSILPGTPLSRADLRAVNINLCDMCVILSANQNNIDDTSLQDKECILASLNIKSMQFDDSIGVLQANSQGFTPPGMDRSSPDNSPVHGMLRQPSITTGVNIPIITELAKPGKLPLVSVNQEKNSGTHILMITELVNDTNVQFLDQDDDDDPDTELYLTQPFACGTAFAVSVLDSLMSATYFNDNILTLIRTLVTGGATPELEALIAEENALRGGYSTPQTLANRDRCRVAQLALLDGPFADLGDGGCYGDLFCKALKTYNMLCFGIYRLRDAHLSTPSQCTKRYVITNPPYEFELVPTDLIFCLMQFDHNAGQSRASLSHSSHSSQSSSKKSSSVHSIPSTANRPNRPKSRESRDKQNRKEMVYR

Compound: CC(=O)[C@H]1CC[C@H]2[C@@H]3CCC4=CC(=O)CC[C@]4(C)[C@H]3CC[C@]12C [PROG, Progesterone]
- increase of BK channel activity ([1]; 10 µM, I/O patches, 30 μM free Ca2+): ~ 3 fold
- normalized NPo, time course Fig 5C ([1]; wt mouse, PROG, time 1 (normalisation reference), columns = cell number): 1
- effect on EtOH-induced cerebrovascular constriction (MCA branches (C57BL/6J)): still protected against EtOH-induced cerebrovascular constriction
- effect on EtOH-induced vasoconstriction [2]: blunted EtOH-induced vasoconstriction at all alcohol concentrations
